Measured values taken from patent publication US8026269B2, “Isoindoline compounds and methods of making and using the same” (Celgene Corporation, priority 2004, dated 2011).

Row | SMILES | melting point
1 | CCOc1cc(C(CC#N)N2C(=O)c3ccc4ccccc4c3C2=O)ccc1OC (centres unmarked) [Example 1, 3-(1,3-Dioxobenzo[e]isoindolin-2-yl)-3-(3-ethoxy-4-methoxyphenyl)propanenitrile] | 163 to 165 °C
2 | CCOc1cc([C@@H](CS(C)(=O)=O)N2C(=O)c3cccc(NC(=O)c4ccco4)c3C2=O)ccc1OC [Example 2, (1S)-Furan-2-carboxylic Acid {2-[1-(3-ethoxy-4-methoxyphenyl)-2-methanesulfonyl-ethyl]-1,3-dioxo-2,3-dihydro-1H-isoindol-4-yl}-amide] | 184 to 186 °C
3 | CCOc1cc([C@@H](CS(C)(=O)=O)N2C(=O)c3cccc(NC(=O)COC)c3C2=O)ccc1OC [Example 3, (1S)—N-{2-[1-(3-ethoxy-4-methoxyphenyl)-2-methanesulfonyl-ethyl]-1,3-dioxo-2,3-dihydro-1H-isoindol-4-yl}-2-methoxy-acetamide] | 151 to 153 °C
4 | CCOc1cc([C@@H](CS(C)(=O)=O)N2Cc3cccc(NCC4CC4)c3C2=O)ccc1OC [Example 4, (1S)-7-(Cyclopropylmethyl-amino)-2-[1-(3-ethoxy-4-methoxyphenyl)-2-methanesulfonyl-ethyl]-2,3-dihydro-isoindol-1-one] | 147 to 149 °C
5 | CCOc1cc([C@@H](CS(C)(=O)=O)N2Cc3cccc(NCC(C)C)c3C2=O)ccc1OC [Example 5, (1S)-2-[1-(3-Ethoxy-4-methoxyphenyl)-2-methanesulfonyl-ethyl]-7-isobutylamino-2,3-dihydro-isoindol-1-one] | 122 to 124 °C
6 | CCOc1cc([C@@H](CC(=O)N(C)C)N2Cc3cccc(NCC(C)(C)C)c3C2=O)ccc1OC [Example 6, (3R)-3-[7-(2,2-Dimethyl-propylamino)-1-oxo-1,3-dihydro-isoindol-2-yl]-3-(3-ethoxy-4-methoxyphenyl)-N,N-dimethyl-propionamide] | 111 to 113 °C
7 | CCOc1cc(C(CC#N)N2C(=O)c3ccc(NC(N)=O)cc3C2=O)ccc1OC (centres unmarked) [Example 11] | 163 to 165 °C
8 | CCOc1cc(C(CC#N)N2C(=O)c3cccc(NC(N)=O)c3C2=O)ccc1OC (centres unmarked) [Example 12] | 179 to 181.5 °C
9 | COc1ccc(C(CS(C)(=O)=O)N2C(=O)c3cccc(NC(C)=O)c3C2=O)cc1OCC1CC1 (centres unmarked) [Example 13, N-{2-[1-(3-Cyclopropylmethoxy-4-methoxy-phenyl)-2-methanesulfonyl-ethyl]-1,3-dioxo-2,3-dihydro-1H-isoindol-4-yl}-acetamide] | 102 to 104 °C
10 | CCOc1cc([C@@H](CC(=O)N(C)C)N2Cc3cccc(NC(=O)N(C)C)c3C2=O)ccc1OC [Example 15, (3R)-3-(7-(3,3-Dimethyl-ureido)-1-oxo-1,3-dihydro-isoindol-2-yl}-3-(3-ethoxy-4-methoxy-phenyl)-N,N-dimethyl-propionamide] | 105 to 107 °C
11 | CCOc1cc([C@@H](CS(C)(=O)=O)N2Cc3cccc(NC(=O)N(C)C)c3C2=O)ccc1OC [Example 16, (1S)-3-{2-[1-(3-Ethoxy-4-methoxy-phenyl)-2-methanesulfonyl-ethyl]-3-oxo-2,3-dihydro-1H-isoindol-4-yl}-1,1-dimethyl-urea] | 170 to 172 °C
